Experimental data as given in patent US20250034116A1, “1,4-DIHETEROCYCLIC SUBSTITUTED AROMATIC RING OR AROMATIC HETEROCYCLIC COMPOUND AND USE THEREOF” (BeBetter Med Inc., priority 2022, published 2025).

What was measured:
[1] = test system: CYP enzymes in human liver microsomes (HLM); assay: Inhibition of 20-HETE production in human liver microsomes (HLM); type: biochemical
Method in brief: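 Liver microsomes (human or mouse) or recombinant CYP4F2 or CYP4A11 in potassium phosphate buffer mixed with compound, then with 400 μM substrate solution (stock). After 10 min preincubation at 37 °C, reaction started with 6 mM NADPH solution (stock) and run 25 min at 37 °C. 20-HETE formation quantified by LC-MS/MS; IC50 from a four-parameter Hill fit, with percent inhibition also reported at 1000, 500 or 100 nM.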

[2] = test system: CYP enzymes in rat liver microsomes (RLM); assay: Inhibition of 20-HETE production in rat liver microsomes (RLM); type: biochemical
Method in brief: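 Test compounds were dissolved in DMSO, diluted in acetonitrile/DMSO (3:1), and 2 μl was mixed with 100 μl potassium phosphate buffer containing rat liver microsomes in a 96-well plate. Duplicate 30 μl aliquots received 15 μl of 400 μM substrate, were preheated at 37° C. for 10 minutes, then started with 15 μl of 6 mM NADPH for 25 minutes. LC-MS/MS measured 20-HETE formation.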

[3] = molecular target: recombinant CYP4F2 (rCYP4F2) (Homo sapiens (Human), UniProt P78329); assay: Inhibition of 20-HETE production by recombinant CYP4F2; type: biochemical; conditions: read-out: rCYP4F2 (% inh @ 100 nM)
Procedure: (§1) Experimental principle: The inhibitory activity of 20-HETE production is evaluated by testing the inhibitory effects of the compound on human liver microsomes (HLM), rat liver microsomes (RLM), mouse liver microsomes (MLM), or […] CYP4 subtype enzymes (CYP4F2). This assay employs HLM, RLM, or MLM along with recombinant CYP4F2 (rCYP4F2) and recombinant CYP4A11 (rCYP4A11), which are […] CYP4 subtype enzymes, to detect the effects of the test compound at different concentrations on the metabolic rate of enzyme-specific substrates, to determine the inhibitory effects of the test compound on CYP enzymes in HLM, RLM, or MLM.
(§2) Experimental methods: Dissolve the test compound in DMSO, and subsequently dilute it with an acetonitrile and DMSO mixture (3:1). Add 2 μl of varying concentrations of the test compound and 100 μl of potassium phosphate buffer containing either liver microsomes or recombinant enzymes to a 96-well plate. After mixing well, transfer 30 μl to another well (in duplicate), add 15 μl of 400 μM substrate solution, and mix well again. Preheat at 37° C. for 10 minutes, and then add 15 μl of 6 mM NADPH and incubate at 37° C. for 25 minutes. After 25 minutes, add 160 μl of acetonitrile solution (containing 0.1 μg/ml internal standard) to stop the reaction. Mix well, centrifuge at 3500 g for 15 minutes, and then analyze the supernatant using LC-MS/MS.
(§3) Plot the compound concentration on the x-axis and the inhibition rate on the y-axis to draw the curve. Use GraphPad Prism 5 software to fit the curve and calculate the IC50. The formula is Y=Bottom+(Top−Bottom)/(1+10^((Log IC50−X)×HillSlope)). X represents the logarithmic concentration of the inhibitor, and Y represents the relative enzyme activity at a given inhibitor concentration (relative to the condition without the inhibitor).
(§4) Calculate the inhibition percentages at concentrations of 1000 nM, 500 nM, or 100 nM as well as the half-maximal inhibitory concentration (IC50) of the test compound from the above experiment.

[4] = molecular target: recombinant CYP4A11 (rCYP4A11) (Homo sapiens (Human), UniProt Q02928); assay: Inhibition of 20-HETE production by recombinant CYP4A11; type: biochemical; conditions: read-out: rCYP4A11 (% inh @ 100 nM)
Procedure: as §1, §2, §3, §4

[5] = test system: CYP enzymes in mouse liver microsomes (MLM); assay: Inhibition of 20-HETE production in mouse liver microsomes (MLM); type: biochemical
Procedure: as §1, §2, §3, §4

[6] = Pharmacokinetic (PK) experiment, oral administration in rats; type: in vivo, Male SD rats; conditions: 20 mg/kg; for AUC(0-inf) / Cmax / Tmax / half-life / AUC(0-t): male, SD, rat, plasma; for AUC(0-t): read-out: AUC0-24
Procedure: Male SD rats, weighing 180-250 grams, were fasted overnight before testing. The test compound was dissolved in 30% sulfobutylether-β-cyclodextrin and administered orally at a dose of 20 mg/kg. Blood was collected from the tail vein at 15 minutes, 30 minutes, and 1, 2, 4, 6, 8, and 24 hours after administration. Approximately 0.3 ml of blood was collected at each time point, placed in a centrifuge tube containing K2-EDTA, and centrifuged (2000 g for 10 minutes at 4° C.) to take the plasma, which was then stored in an ultra-low temperature freezer at −70° C. or below. A 50 μL plasma sample was mixed with 135 μL of acetonitrile (containing 0.5 μg/mL internal standard) and vortexed for protein precipitation. After centrifugation, the supernatant was taken for LC-MS/MS analysis.

Sequence of recombinant CYP4A11 (rCYP4A11) (Q02928 5-519): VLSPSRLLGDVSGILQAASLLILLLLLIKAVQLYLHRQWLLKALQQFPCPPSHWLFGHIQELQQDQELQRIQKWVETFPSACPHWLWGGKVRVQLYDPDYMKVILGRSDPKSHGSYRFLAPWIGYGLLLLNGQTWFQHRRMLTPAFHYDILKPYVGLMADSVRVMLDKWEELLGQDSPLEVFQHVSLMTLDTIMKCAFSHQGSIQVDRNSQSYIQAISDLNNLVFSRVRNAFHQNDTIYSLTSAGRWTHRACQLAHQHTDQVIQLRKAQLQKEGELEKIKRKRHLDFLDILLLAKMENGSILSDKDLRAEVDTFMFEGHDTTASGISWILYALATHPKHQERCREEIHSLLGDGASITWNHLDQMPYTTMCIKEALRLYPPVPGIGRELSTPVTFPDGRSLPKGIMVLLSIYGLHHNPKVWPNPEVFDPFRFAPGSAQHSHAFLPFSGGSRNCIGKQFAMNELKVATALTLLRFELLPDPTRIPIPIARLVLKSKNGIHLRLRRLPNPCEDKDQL
Sequence of recombinant CYP4F2 (rCYP4F2) (P78329 5-520): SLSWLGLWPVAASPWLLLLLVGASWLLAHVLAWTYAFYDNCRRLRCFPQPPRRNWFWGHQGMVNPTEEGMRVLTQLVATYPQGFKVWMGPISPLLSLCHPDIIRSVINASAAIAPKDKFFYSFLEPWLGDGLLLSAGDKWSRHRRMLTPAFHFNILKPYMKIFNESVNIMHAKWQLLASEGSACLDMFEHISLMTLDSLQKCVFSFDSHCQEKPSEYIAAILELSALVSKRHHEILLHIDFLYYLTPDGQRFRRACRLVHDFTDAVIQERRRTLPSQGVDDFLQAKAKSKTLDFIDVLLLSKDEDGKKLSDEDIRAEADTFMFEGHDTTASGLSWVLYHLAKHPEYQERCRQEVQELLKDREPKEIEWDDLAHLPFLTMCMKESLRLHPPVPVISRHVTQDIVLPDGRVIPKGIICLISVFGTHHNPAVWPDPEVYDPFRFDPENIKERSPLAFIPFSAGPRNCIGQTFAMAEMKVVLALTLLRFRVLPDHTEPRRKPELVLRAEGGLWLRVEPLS

SMILES	HLM (% inh @ 500 nM) [1] [%]	RLM (% inh @ 500 nM) [2] [%]	inhibition at 0.1 µM [3] [%]	inhibition at 0.1 µM [4] [%]	IC50 [2] [nM]	IC50 [1] [nM]	IC50 [5] [nM]	absorption and blood exposure after oral administration (in words) [6]	AUC(0-inf) [6] [ng·h/mL]	Cmax [6] [ng/mL]	Tmax [6] [h]	half-life [6] [h]	AUC(0-t) [6] [ng·h/mL]
O=C1CCCN1CC1CCN(c2ccc(-c3cn[nH]c3)cc2)C1 (centres unmarked) [Compound 74, 1-((1-(4-(1H-pyrazol-4-yl)phenyl)pyrrolidin-3-yl)methyl)pyrrolidin-2-one]	72.44	47.19	52.8	17.5									
O=C1CCCN1CC1CCN(c2ccc(-c3ccno3)cc2)CC1 [Compound 34, 1-((1-(4-(isoxazol-5-yl)phenyl)piperidin-4-yl)methyl)pyrrolidin-2-one]	71.06	83.75	49.7	1.59									
O=C1CCCN1CC1CCN(c2ccc(-c3cn[nH]c3)c(F)c2)CC1 [Compound 3, 1-((1-(3-fluoro-4-(1H-pyrazol-4-yl)phenyl)piperidin-4-yl)methyl)pyrrolidin-2-one]	75.59		64.2	27.8	322								
O=C(NC1CCCCC1)C1CCN(c2ccc(-c3cn[nH]c3)cc2)CC1 [Compound 57, 1-(4-(1H-pyrazol-4-yl)phenyl)-N-cyclohexylpiperidine-4-carboxamide]	81.76	49.97	61.7	8.98									
O=C(NCC1CCN(c2ccc(-c3cn[nH]c3)cc2)CC1)c1ccccc1 [Compound 47, N-((1-(4-(1H-pyrazol-4-yl)phenyl)piperidin-4-yl)methyl)benzamide]		35.64	66	41.1		42.7							
O=C(N1CC=C(c2ccc(-c3cn[nH]c3)c(F)c2F)CC1)N1CCCC1 [Compound 91, (4-(2,3-difluoro-4-(1H-pyrazol-4-yl)phenyl)-3,6-dihydropyridin-1(2H)-yl)(pyrrolidin-1-yl) methanone]	96.45				9.09	19.1	735	well absorbed and exhibit high blood exposure	107000	11400	2.5	2.22	107000
O=C(C1CCN(c2ccc(-c3cn[nH]c3)cc2)CC1)N1CCCC1 [Compound 49, (1-(4-(1H-pyrazol-4-yl)phenyl)piperidin-4-yl)(pyrrolidin-1-yl) methanone]	79.80	44.31	42.4	23.3	521								
O=C(Nc1ccc2occc2c1)C1CCN(c2ccc(-c3cn[nH]c3)cc2)CC1 [Compound 62, 1-(4-(1H-pyrazol-4-yl)phenyl)-N-(benzofuran-5-yl)piperidine-4-carboxamide]	85.05	50.28	79.2	25.8		19.6							
O=S1(=O)CCCCN1CC1CCN(c2ccc(-c3cn[nH]c3)cc2F)CC1 [Compound 163, 2-((1-(2-fluoro-4-(1H-pyrazol-4-yl)phenyl)piperidin-4-yl)methyl)-1,2-thiazinane 1,1-dioxide]	90.91	64.17			222	9.53	1010	well absorbed and exhibit high blood exposure	44700	6680	1.67	4.03	44100
O=C(N1CCC(c2ccc(-c3cn[nH]c3)cc2F)CC1)N1CC2CCCC2C1 (centres unmarked) [Compound 106, (4-(2-fluoro-4-(1H-pyrazol-4-yl)phenyl)piperidin-1-yl)(hexahydrocyclopenta[c]pyrrol-2 (1H)-yl) methanone]	91.17	84.57			10.7	23.2	2810						
